Data: US20250214951A1, “3-PHENYLISOXAZOLE DERIVATIVE, AND PHARMACEUTICAL COMPOSITION FOR PREVENTING OR TREATING EYE DISEASE, CONTAINING SAME AS ACTIVE INGREDIENT” (VASTHERA CO., LTD., priority 2022, published 2025)

What was measured:
[1] = test system: p62 protein phosphorylated at serine 349 (p-p62 (S349)); assay: Autophagy activation by increase of p-p62 (S349), Western immunoblotting; assay type: cell-based, human; conditions: indicated concentrations; FIG. 14
Method: The cells were treated with the test compounds at the indicated concentrations, and the autophagy activation effect through the increase of p62 protein (p-p62 (S349)) phosphorylated at serine 349 residue was measured by Western immunoblotting using an anti-p-p62 antibody, and the results are shown in FIG. 14. The increase in the intracellular P-p62 ([…]) level is one of the major indicators of autophagy activation.

[2] = test system: A2E-BDP in ARPE-19 cells; assay: A2E-BDP removal ability by concentration of other example compounds; assay type: cell-based, human; conditions: indicated concentrations; FIG. 13
Method: (§1) The human retinal pigment epithelial cell line (ARPE-19) used in the experiment was provided by ATCC (American Type Culture Collection). The ARPE-19 cell line was cultured in DMEM medium containing 10% FBS. After culture, the cells were dispensed into 96-well plates at a concentration of 4×10^3 cells/well and cultured for 24 hours. The ARPE-19 cell line was treated with A2E-fluorescent labeling substance (A2E-BDP) at a concentration of 10 μM for 24 hours to induce the accumulation of A2E-BDP in the ARPE-19 cell line.
(§2) In order to evaluate the intracellular A2E removal ability of the compound of the present invention, an easily detectable A2E-fluorescent labeling substance (A2E-BDP) was used. The ARPE-19 cells prepared by the above method were treated with each test compound at a concentration of 50 μM once, and then cultured for 24 hours. The cells were lysed by adding a cell lysis buffer containing a protease inhibitor (50 mM Tris-chloride, pH 8.0, 150 mM sodium chloride, 1% NP-40, 1% sodium deoxycholate, 1% sodium dodecyl sulfate, and 2 mM ethylenediamine tetraacetic acid) to each 96-well. The prepared cell lysate was transferred to a white 96-well plate, and the fluorescence intensity was measured using a fluorescence microplate reader (VICTOR™ X3, Perkin Elmer, USA) (excitation 485 nm, emission 535 nm).
The A2E-fluorescent labeling substance (A2E-BDP) removal ability was evaluated according to Experimental Example 1 (except that the test compound was treated at the indicated concentration).

[3] = test system: A2E-BDP present in human retinal pigment epithelial cells (ARPE-19); assay: Screening of ability to remove A2E-fluorescent labeling substance (A2E-BDP), lysate fluorescence; assay type: cell-based; conditions: ARPE-19, 24 h, ARPE-19 loaded with 10 μM A2E-BDP 24 h, test compound 50 μM once, fluorescence ex 485/em 535 nm, read-out: Capacity (%) to remove A2E-BDP at 50 μM
Method: as §1, §2

[4] = test system: LC3-II; assay: Concentration-dependent autophagy activation through increase of LC3-II (FIGS. 15 and 16); assay type: cell-based, human
Method: (§3) ARPE-19 was dispensed into a 6-well plate at a concentration of 1×10^5 cells/well and cultured for 24 hours. Then, cells were treated with example 17 compound of the present invention at concentrations of 10, 25, and 50 μM for 12 hours. Then, a cell lysis buffer containing a protease inhibitor was added to prepare a cell lysate. The LC3-II level was measured by Western immunoblotting using an anti-LC3-II antibody (Cell Signaling Technology, MA, USA). As an internal control, an antibody against β-actin (Cell Signaling Technology) was used and measured by Western immunoblotting in the same manner as above, and is shown in FIG. 6 (upper graph).
(§4) The autophagy activation effect of example compounds expected to have autophagy activation ability and low cytotoxicity among the example compounds in Table 2 above in human retinal pigment epithelial cells was evaluated according to Experimental Example 7. That is, the autophagy activation effect through the increase of LC3-II was evaluated in a concentration-dependent manner, and the results are shown in FIGS. 15 and 16.

[5] = test system: LC3-II; assay: LC3-II production capacity at 10 μM (Table 4); assay type: cell-based; conditions: Homo sapiens, 12 h
Method: as §3, §4

[6] = test system: A2E-BDP in ARPE-19 cells; assay: Removal of A2E-BDP by concentration, fluorescence and phase contrast microscopy; assay type: cell-based, human; conditions: ARPE-19 with A2E-BDP; 10, 25, 50 μM, 24 h; FIG. 1
Method: ARPE-19 cell line was dispensed into a 24-well plate at a concentration of 4×10^4 cells/well and cultured for 24 hours. In order to induce A2E-BDP accumulation in ARPE-19 cell line, the cells were treated with […] of 10 μM for 24 hours. The A2E-BDP-containing ARPE-19 cells were treated with compound 17 (10, 25, 50 μM) for 24 hours. The level of A2E-BDP in each cell was measured as a fluorescence image at 510 nm using a Nikon Eclipse Ti—U fluorescence microscope (Tokyo, Japan). In addition, the change in cell number according to compound treatment was observed using a general phase contrast microscope, and the results are shown in FIG. 1. Meanwhile, lutein was used as a control substance.

Structure (SMILES) | autophagy activation through increase of p-p62 (S349) [1] | A2E-BDP removal ability by concentration (amount of A2E) [2] | inhibition at 50 µM [3] [%] | autophagy activation effect through the increase of LC3-II [4] | fold induction at 10 µM [5] | A2E-BDP fluorescence intensity (fluorescence microscope) [6]
COc1ccc(Br)cc1-c1cc(COCc2ccccc2)on1 [Example 11, 5-((benzyloxy)methyl)-3-(5-bromo-2-methoxyphenyl)isoxazole] | activated autophagy in a concentration-dependent manner | concentration-dependent decrease in the amount of A2E | ≥ 60 | – | – | –
C=CCc1ccc(OC)c(-c2cc(COCc3ccccc3)on2)c1 [Example 18, 3-(5-allyl-2-methoxyphenyl)-5-((benzyloxy)methyl)isoxazole] | activated autophagy in a concentration-dependent manner | concentration-dependent decrease in the amount of A2E | ≥ 60 | – | – | –
COc1ccc(Br)cc1-c1cc(CN2CCN(C(=O)OC(C)(C)C)CC2)on1 [Example 21, tert-butyl 4-((3-(5-bromo-2-methoxyphenyl)isoxazole-5-yl)methyl)piperazine-1-carboxylate] | activated autophagy in a concentration-dependent manner | concentration-dependent decrease in the amount of A2E | ≥ 60 | – | – | –
CCCc1ccc(OC)c(-c2cc(CN3CCN(C(=O)OC(C)(C)C)CC3)on2)c1 [Example 26, tert-butyl 4-((3-(2-methoxy-5-propylphenyl)isoxazole-5-yl)methyl)piperazine-1-carboxylate] | activated autophagy in a concentration-dependent manner | concentration-dependent decrease in the amount of A2E | ≥ 60 | – | – | –
CCCc1ccc(OC(F)(F)F)c(-c2cc(CN3CCN(C)CC3)on2)c1 [Example 60, 5-((4-methylpiperazine-1-yl)methyl)-3-(5-propyl-2-(trifluoromethoxy)phenyl)isoxazole] | – | – | – | excellent autophagy activation effects | 3.1 | –
CC1=C[C@H](O)CC(C)(C)[C@H]1/C=C/C(C)=C/C=C/C(C)=C/C=C/C=C(C)/C=C/C=C(C)/C=C/C1=C(C)C[C@@H](O)CC1(C)C [lutein, reference compound] | – | – | – | – | – | a decrease in fluorescence intensity was observed
